Experimental data: patent publication US20250325636A1, “USE OF ENDOTHELIN RECEPTOR TYPE B AGONISTS FOR THE TREATMENT OF AORTIC VALVE STENOSIS” (INSTITUT NATIONAL DE LA SANTÉ ET DE LA RECHERCHE MÉDICALE, priority 2022, published 2025)

System: valvular interstitial cells (VIC)
Experiment: Calcium content of valvular interstitial cells cultured in pro-calcifying medium containing inorganic phosphate (o-cresolphtalein-based assay)
Assay type: cell-based, human
Conditions: VIC in procalcifying conditions containing inorganic phosphate (Pi), 10 days, compared to non-treated VIC
Description: Valvular endothelial cells (VEC), isolated from human aortic valves, were cultured in a cell perfusion system to assess ET-1 production in different fluid flow shear stress conditions. In addition, valvular interstitial cells (VIC) were cultured in a pro-calcifying culture medium containing inorganic phosphate (Pi) with or without antagonists of either the ETA or ETB receptor antagonists or with the agonist of the ETB receptor IRL 1620 during 10 days. Aortic valves from rats were also cultured in ex vivo and stimulated with ET-1 antagonists. Calcium content was assessed using an o-cresolphtalein-based assay and fluorescence by Osteosens. VEC prepro-ET-1 and VIC osteogenic mRNA expression levels were evaluated by RTqPCR.

N-Succinyl-[Glu9, Alal U5]-Endothelin 1 fragment 8-21 [IRL-1620]
Calcium content of VIC: decreased the calcium content of VIC | Calcium content of VIC (listed as IRL 1620): decreases their calcium content
